From patent US20240174695A1, “Spirocycle Containing Bicyclic Heteroaryl Compounds” (Protego Biopharma, Inc., priority 2022, published 2024)

These compounds were tested on Recombinant amyloidogenic full length light chain protein WIL-FL T46L (assay: Differential Scanning Fluorimetry Assay (thermal shift assay)). Details: Thermal Shift Protein Stability Kit (Biotium), 96-well plates; protein and compounds incubated at RT for 30 min before adding the dye.
Assay type: binding
Procedure: Differential Scanning Fluorimetry Assay
The stabilization effects the compounds have on the immunoglobulin light chain protein were quantitively measured using a thermal shift assay. Recombinant amyloidogenic full length light chain protein WIL-FL T46L was produced in E. coli, purified, and used in the assay. The Thermal Shift Protein Stability Kit from Biotium was used and the assay was done in 96-well plates following the manufacturer's instructions. The protein and compounds were incubated at RT for 30 min before adding the dye and subjected to the thermal shift assay. The thermal stability (Tm) of each sample was then determined using standard curve fitting methods and compared to vehicle. Data are expressed as temperature shift: [Tm]compound−[Tm]vehicle.
Results • 0-0.5° C.=* • >0.5-1° C.=** • >1-1.5° C.=*** • >1.5-2.5° C.=**** • >2.5° C.=*****
Further: test concentration or dose not given here.

Question: Which “DSF temperature shift: [Tm]compound−[Tm]vehicle” value (shortened to “DSF temperature shift”) does the source give for `Cc1cc(N2CCC(C)(c3ccccc3)C2)cn2nc(CCN3CCCC4(CCN(c5nccn6cnnc56)CC4)C3=O)nc12` (stereo in doubt) [Compound 28, (R)-9-([1,2,4]triazolo[4,3-a]pyrazin-8-yl)-2-(2-(8-methyl-6-(3-methyl-3-phenylpyrrolidin-1-yl)-[1,2,4]triazolo[1,5-a]pyridin-2-yl)ethyl)-2,9-diazaspiro[5.5]undecan-1-one] here?
Answer: ***** (>2.5° C.=*****)

Question: `Cc1cc(N2CCC(C)(c3ccccc3)C2)cn2nc(CCN3CC4(CCN(c5nccn6ccnc56)CC4)NC3=O)nc12` (centres unmarked) [Compound 1, 8-(Imidazo[1,2-a]pyrazin-8-yl)-3-(2-(8-methyl-6-(3-methyl-3-phenylpyrrolidin-1-yl)-[1,2,4]triazolo[1,5-a]pyridin-2-yl)ethyl)-1,3,8-triazaspiro[4.5]decan-2-one] was tested. Which “DSF temperature shift” value did it give?
Answer: ***** (>2.5° C.=*****)

Question: How did the “DSF temperature shift” value turn out when `Cc1cc(N2CC[C@](C)(c3ccccc3)C2)cn2nc(CCN3CC4(CCN(c5nccn6ccnc56)CC4)NC3=O)nc12` [Compound 2] was run?
Answer: ***** (>2.5° C.=*****)

Question: Which “DSF temperature shift” value does the source give for `Cc1cc(N2CC[C@@](C)(c3ccccc3)C2)cn2nc(CCN3CC4(CCN(c5nccn6ccnc56)CC4)NC3=O)nc12` [Compound 3] here?
Answer: ***** (>2.5° C.=*****)

Question: With `Cc1cc(N2CCC(C)(c3ccccc3)C2)cn2nc(CCCN3CC4(CCN(c5nccn6ccnc56)CC4)NC3=O)nc12` (centres unmarked) [Compound 4] as the compound, how does the “DSF temperature shift” value read?
Answer: ***** (>2.5° C.=*****)

Question: `CCC1(c2ccccc2)CCN(c2cc(C)c3nc(CCN4CC5(CCN(c6nccn7ccnc67)CC5)NC4=O)nn3c2)C1` (centres unmarked) [Compound 5] was tested. Which “DSF temperature shift” value did it give?
Answer: ***** (>2.5° C.=*****)

Question: How did the “DSF temperature shift” value turn out when `CC[C@]1(c2ccccc2)CCN(c2cc(C)c3nc(CCN4CC5(CCN(c6nccn7cncc67)CC5)NC4=O)nn3c2)C1` [Compound 6] was run?
Answer: ***** (>2.5° C.=*****)

Question: With `CC[C@@]1(c2ccccc2)CCN(c2cc(C)c3nc(CCN4CC5(CCN(c6nccn7cncc67)CC5)NC4=O)nn3c2)C1` [Compound 7] as the compound, how does the “DSF temperature shift” value read?
Answer: ***** (>2.5° C.=*****)

Question: How did the “DSF temperature shift” value turn out when `CC[C@]1(c2ccccc2)CCN(c2cc(C)c3nc(CCN4CC5(CCN(c6nccn7cnnc67)CC5)NC4=O)nn3c2)C1` [Compound 8] was run?
Answer: ***** (>2.5° C.=*****)

Question: Which “DSF temperature shift” value does the source give for `Cc1cc(OCC(C)c2ccccc2)cn2nc(CCN3CC4(CCN(c5nccn6ccnc56)CC4)NC3=O)nc12` (centres unmarked) [Compound 9, 8-(Imidazo[1,2-a]pyrazin-8-yl)-3-(2-(8-methyl-6-(2-phenylpropoxy)-[1,2,4]triazolo[1,5-a]pyridin-2-yl)ethyl)-1,3,8-triazaspiro[4.5]decan-2-one] here?
Answer: ***** (>2.5° C.=*****)

Question: With `Cc1cc(OC[C@H](C)c2ccccc2)cn2nc(CCN3CC4(CCN(c5nccn6ccnc56)CC4)NC3=O)nc12` [Compound 10] as the compound, how does the “DSF temperature shift” value read?
Answer: ***** (>2.5° C.=*****)

Question: For `Cc1cc(OC[C@@H](C)c2ccccc2)cn2nc(CCN3CC4(CCN(c5nccn6ccnc56)CC4)NC3=O)nc12` [Compound 11], which “DSF temperature shift” value is on record?
Answer: **** (>1.5-2.5° C.=****)

Question: Which “DSF temperature shift” value does the source give for `Cc1cc(OC[C@@H](C)c2ccccc2)cn2nc(CCN3CC4(CCN(c5nccn6cncc56)CC4)NC3=O)nc12` [Compound 12] here?
Answer: ***** (>2.5° C.=*****)

Question: Which “DSF temperature shift” value does the source give for `Cc1cc(OCC(C)c2ccccc2)cn2nc(CCN3CC4(CCN(c5nccn6cnnc56)CC4)NC3=O)nc12` (centres unmarked) [Compound 13] here?
Answer: ***** (>2.5° C.=*****)

Question: With `Cc1c(CCN2C(=O)NC3(CCN(c4nccn5ccnc45)CC3)C2=O)nc2cc(O[C@H](C)c3ccccc3)ccn12` [Compound 14, 8-(Imidazo[1,2-a]pyrazin-8-yl)-3-(2-(3-methyl-7-(1-phenylethoxy)imidazo[1,2-a]pyridin-2-yl)ethyl)-1,3,8-triazaspiro[4.5]decane-2,4-dione] as the compound, how does the “DSF temperature shift” value read?
Answer: ** (>0.5-1° C.=**)

Question: With `CC(=O)N1CCC(N2CCC3(CC2)CN(CC(O)c2nc4c(C)cc(OCC5(c6ccccc6)CC5)cn4n2)C(=O)N3)CC1` (centres unmarked) [Compound 15] as the compound, how does the “DSF temperature shift” value read?
Answer: *** (>1-1.5° C.=***)

Question: Which “DSF temperature shift” value does the source give for `Cc1cc(N2CC3(CN(CC(O)c4nc5c(C)cc(OC[C@H](C)c6ccccc6)cn5n4)C(=O)N3)C2)cc(O)n1` (some centres unmarked) [Compound 16] here?
Answer: ***** (>2.5° C.=*****)

Question: With `Cc1cc(N2CCC(C)(c3ccccc3)C2)cn2nc(CCCN3C(=O)NC4(CCN(c5nccn6ccnc56)CC4)C3=O)nc12` (centres unmarked) [Compound 17] as the compound, how does the “DSF temperature shift” value read?
Answer: ***** (>2.5° C.=*****)

Question: With `Cc1cc(N2CCC3(CC2)CN(CC(O)c2nc4c(C)cc(OCC5(c6ccccc6)CC5)cn4n2)C(=O)N3)ccn1` (centres unmarked) [Compound 18] as the compound, how does the “DSF temperature shift” value read?
Answer: ***** (>2.5° C.=*****)

Question: `Cc1cc(N2CC[C@@](C)(c3ccccc3)C2)cn2nc(C(C)(O)CN3CC4(CCN(c5ccnc(O)c5)CC4)NC3=O)nc12` (some centres unmarked) [Compound 20] was tested. Which “DSF temperature shift” value did it give?
Answer: ***** (>2.5° C.=*****)

Question: For `Cc1cc(N2CC[C@@](C)(c3ccccc3)C2)cn2nc(C(O)CN3CC4(CCN(c5ccnc(O)c5)CC4)NC3=O)nc12` (some centres unmarked) [Compound 21], which “DSF temperature shift” value is on record?
Answer: ***** (>2.5° C.=*****)

Question: `Cc1cc(N2CC[C@@](C)(c3ccccc3)C2)cn2nc(C(O)CN3CC4(CCN(c5nccn6ccnc56)CC4)NC3=O)nc12` (some centres unmarked) [Compound 22] was tested. Which “DSF temperature shift” value did it give?
Answer: ***** (>2.5° C.=*****)

Question: Which “DSF temperature shift” value does the source give for `Cc1cc(N2CC[C@@](C)(c3ccccc3)C2)cn2nc(C(O)CN3CC4(CN(c5ccnc(O)c5)C4)NC3=O)nc12` (some centres unmarked) [Compound 23] here?
Answer: ***** (>2.5° C.=*****)

Question: For `Cc1cc(N2CC[C@@](C)(c3ccccc3)C2)cn2nc(C(O)CN3CC4(CN(c5cccc(C(=O)O)n5)C4)NC3=O)nc12` (some centres unmarked) [Compound 25], which “DSF temperature shift” value is on record?
Answer: ***** (>2.5° C.=*****)

Question: Which “DSF temperature shift” value does the source give for `Cc1cc(N2CC[C@@](C)(c3ccccc3)C2)cn2nc(C(O)CN3CC4(CN(c5cccc(O)n5)C4)NC3=O)nc12` (some centres unmarked) [Compound 26] here?
Answer: ***** (>2.5° C.=*****)

Question: With `Cc1cc(N2CC[C@@](C)(c3ccccc3)C2)cn2nc(CCN3CC4(CN(c5ccnc(O)c5)C4)NC3=O)nc12` [Compound 27] as the compound, how does the “DSF temperature shift” value read?
Answer: ***** (>2.5° C.=*****)

Question: For `Cc1cc(OCC2(c3ccccc3)CC2)cn2nc(C(O)CN3CC4(CCN(C(=O)C5(c6ccccn6)CC5)CC4)NC3=O)nc12` (centres unmarked) [Compound 29], which “DSF temperature shift” value is on record?
Answer: ***** (>2.5° C.=*****)

Question: With `Cc1cc(OCC2(c3ccccc3)CC2)cn2nc(C(O)CN3CC4(CCN(C(=O)c5nncn5C)CC4)NC3=O)nc12` (centres unmarked) [Compound 30, 3-(2-hydroxy-2-(8-methyl-6-((1-phenylcyclopropyl)methoxy)-[1,2,4]triazolo[1,5-a]pyridin-2-yl)ethyl)-8-(4-methyl-4H-1,2,4-triazole-3-carbonyl)-1,3,8-triazaspiro[4.5]decan-2-one] as the compound, how does the “DSF temperature shift” value read?
Answer: **** (>1.5-2.5° C.=****)

Question: Which “DSF temperature shift” value does the source give for `Cc1nonc1C(=O)N1CCC2(CC1)CN(CC(O)c1nc3c(C)cc(OCC4(c5ccccc5)CC4)cn3n1)C(=O)N2` (centres unmarked) [Compound 31] here?
Answer: **** (>1.5-2.5° C.=****)

Question: For `Cc1cc(OCC2(c3ccccc3)CC2)cn2nc(C(O)CN3CC4(CCN(C(=O)Cc5nnc[nH]5)CC4)NC3=O)nc12` (centres unmarked) [Compound 32], which “DSF temperature shift” value is on record?
Answer: **** (>1.5-2.5° C.=****)

Question: `Cc1cc(OCC2(c3ccccc3)CC2)cn2nc(C(O)CN3CC4(CCN(C(=O)Cn5cnnn5)CC4)NC3=O)nc12` (centres unmarked) [Compound 33] was tested. Which “DSF temperature shift” value did it give?
Answer: **** (>1.5-2.5° C.=****)

Question: Which “DSF temperature shift” value does the source give for `Cc1cc(OCC2(c3ccccc3)CC2)cn2nc(C(O)CN3CC4(CCN(C(=O)Cn5nnnc5C)CC4)NC3=O)nc12` (centres unmarked) [Compound 34] here?
Answer: **** (>1.5-2.5° C.=****)
